Experimental data as given in ChEMBL document CHEMBL1142867, “Antiviral activity of triazine analogues of 1-(S)-[3-hydroxy-2-(phosphonomethoxy)propyl]cytosine (cidofovir) and related compounds” (J Med Chem, 2007).
Values after ≈ are worked out from the molar mass of the structure shown.

Columns and labels:
Punta Toro virus = type: functional, organism-based; conditions: Vero
[1] = Cytotoxicity against E6SM cells assessed as alteration in cell morphology; type: cell-based; conditions: human
[2] = Cytotoxicity against HeLa cells assessed as alteration in cell morphology; type: cell-based; conditions: human
[3] = Cytotoxicity against Vero cells assessed as alteration in cell morphology; type: cell-based; conditions: chlorocebus sabaeus
Coxsackievirus B4 [4] = type: functional, organism-based; conditions: Enterovirus B, HeLa
Coxsackievirus B4 [5] = type: functional, organism-based; conditions: Enterovirus B, Vero
[6] = test system: Respiratory syncytial virus; type: functional, organism-based; conditions: human respiratory syncytial virus, Long, HeLa
Human respirovirus 3 = type: functional, organism-based; conditions: Human respirovirus 3, Vero
[7] = test system: Mammalian orthoreovirus 1; type: functional, organism-based; conditions: Mammalian orthoreovirus 1, Vero
Sindbis virus = type: functional, organism-based; conditions: Vero
[8] = test system: Vesicular stomatitis virus; assay: microbe, parasite or virus in culture; conditions: E6SM
[9] = test system: Vesicular stomatitis virus; assay: microbe, parasite or virus in culture; conditions: HeLa
[10] = Cytotoxicity against C3H cells assessed as alteration in cell morphology; type: cell-based; conditions: mouse
[11] = Cytotoxicity against CEM cells assessed as reduction of cell growth; type: cell-based; conditions: human, CEM (CCRF-CEM) cells
Human alphaherpesvirus 1 [12] = type: functional, organism-based; conditions: Human alphaherpesvirus 1, KOS, HEL
Human alphaherpesvirus 2 [13] = type: functional, organism-based; conditions: Human alphaherpesvirus 2, G, HEL
Human alphaherpesvirus 3 [14] = assay: Antiviral activity against VZV OKA in HEL cells assessed as inhibition of plaque formation; type: functional, organism-based; conditions: Human alphaherpesvirus 3, OKA
Human alphaherpesvirus 3 [15] = assay: Antiviral activity against TK- VZV 07-1 in HEL cells assessed as inhibition of plaque formation; type: functional, organism-based; conditions: Human alphaherpesvirus 3, 07-1, HEL
Human betaherpesvirus 5 [16] = type: functional, organism-based; conditions: Human betaherpesvirus 5, AD169, HEL
Human betaherpesvirus 5 [17] = type: functional, organism-based; conditions: Human betaherpesvirus 5, Davis, HEL
Vaccinia virus = type: functional, organism-based; conditions: Orthopoxvirus vaccinia, Lederle, HEL
[18] = Cytotoxicity against HEL cells assessed as alteration in cell morphology after 3 days; type: cell-based; conditions: human, read-out: Activity
HEL = assay: Cytotoxicity against HEL cells assessed as inhibition of cell growth after 3 days; type: cell-based; conditions: human, 72 h
[19] = test system: Human immunodeficiency virus 1; type: functional, organism-based; conditions: Human immunodeficiency virus 1, 3B, CCRF-CEM
[20] = test system: Human immunodeficiency virus 2; type: functional, organism-based; conditions: Human immunodeficiency virus 2, ROD, CCRF-CEM
[21] = test system: Moloney murine sarcoma virus; assay: Antiviral activity against MSV in mouse C3H cells assessed as inhibition of virus-induced transformation after 6 days; type: functional, organism-based; conditions: 144 h
Human alphaherpesvirus 1 [22] = type: functional, organism-based; conditions: Human alphaherpesvirus 1, KOS, HEL; remark: listed apart in the source
Human alphaherpesvirus 2 [23] = type: functional, organism-based; conditions: Human alphaherpesvirus 2, Lyons, HEL
Human adenovirus 2 = type: functional, organism-based; conditions: Human mastadenovirus C, HEL
[24] = Cytotoxicity against HSB2 cells assessed as alteration in cell morphology; type: cell-based, CCRF-HSB-2; conditions: human, read-out: Activity
[25] = Cytotoxicity against Huh5-2 cells assessed as reduction of cell growth; type: cell-based, Huh-5-2; conditions: human

Structure (SMILES)	EC50 (Punta Toro virus)	MCC [1]	MCC [2]	MCC [3]	EC50 (Coxsackievirus B4 [4])	EC50 (Coxsackievirus B4 [5])	EC50 [6]	EC50 (Human respirovirus 3)	EC50 [7]	EC50 (Sindbis virus)	EC50 [8]	EC50 [9]	MCC [10]	EC50 (Human alphaherpesvirus 1 [12])	EC50 (Human alphaherpesvirus 2 [13])	EC50 (Human alphaherpesvirus 3 [14])	EC50 (Human betaherpesvirus 5 [17])	MCC at 72 h [18]	Activity (HEL)	EC50 (Human alphaherpesvirus 1 [22])	other results
NC(=O)c1ncn([C@@H]2O[C@H](CO)[C@@H](O)[C@H]2O)n1 [RIBAVIRIN]	48 µg/mL (≈ 197 µM)	> 400 µg/mL	> 400 µg/mL	> 400 µg/mL	48 µg/mL (≈ 197 µM)	240 µg/mL (≈ 983 µM)	16 µg/mL (≈ 65.5 µM)	48 µg/mL (≈ 197 µM)	48 µg/mL (≈ 197 µM)	240 µg/mL (≈ 983 µM)	240 µg/mL (≈ 983 µM)	80 µg/mL (≈ 328 µM)	–	–	–	–	–	–	–	–	–
C[C@H](Cn1cnc(N)nc1=O)OCP(=O)(O)O	> 100 µg/mL	> 100 µg/mL	> 100 µg/mL	> 100 µg/mL	> 100 µg/mL	> 100 µg/mL	> 100 µg/mL	> 100 µg/mL	> 100 µg/mL	> 100 µg/mL	> 100 µg/mL	> 100 µg/mL	> 100 µg/mL	> 100 µg/mL	> 100 µg/mL	> 100 µg/mL	> 100 µg/mL	> 50 µg/mL	> 50 µg/mL	–	CC50 [11]: > 100 µg/mL; EC50 (Human alphaherpesvirus 3 [15]): > 100 µg/mL; EC50 (Human betaherpesvirus 5 [16]): > 100 µg/mL; EC50 (Vaccinia virus): > 100 µg/mL; EC50 [19]: > 100 µg/mL; EC50 [20]: > 100 µg/mL; EC50 [21]: > 100 µg/mL
Nc1nc2c(ncn2COCCO)c(=O)[nH]1 [ACYCLOVIR]	–	–	–	–	–	–	–	–	–	–	–	–	–	0.015 µg/mL (≈ 0.0666 µM)	0.048 µg/mL (≈ 0.213 µM)	–	–	> 100 µg/mL	173.5 µg/mL	> 20 µg/mL	–
O=c1[nH]c(=O)n([C@H]2C[C@H](O)[C@@H](CO)O2)cc1/C=C/Br [BRIVUDINE]	> 400 µg/mL	> 400 µg/mL	> 400 µg/mL	> 400 µg/mL	> 400 µg/mL	> 400 µg/mL	> 400 µg/mL	> 400 µg/mL	> 400 µg/mL	> 400 µg/mL	> 400 µg/mL	> 400 µg/mL	> 100 µg/mL	0.0025 µg/mL (≈ 0.0075 µM)	–	0.0069 µg/mL (≈ 0.0207 µM)	–	> 100 µg/mL	>= 100 ug ml-1	> 20 µg/mL	EC50 (Human alphaherpesvirus 3 [15]): ≥ 122 µg/mL; EC50 [19]: > 100 µg/mL; EC50 [20]: > 100 µg/mL; EC50 [21]: > 100 µg/mL
Nc1nc(O)c2ncn(COC(CO)CO)c2n1 [GANCICLOVIR]	–	–	–	–	–	–	–	–	–	–	–	–	–	–	0.0096 µg/mL (≈ 0.0376 µM)	–	1.5 µg/mL (≈ 5.88 µM)	> 100 µg/mL	83.6 µg/mL	0.91 µg/mL (≈ 3.57 µM)	–
Nc1ncnc2c1ncn2C[C@H](O)CO [(S)-DHPA]	48 µg/mL (≈ 229 µM)	> 400 µg/mL	> 400 µg/mL	> 400 µg/mL	> 400 µg/mL	240 µg/mL (≈ 1150 µM)	> 400 µg/mL	48 µg/mL (≈ 229 µM)	48 µg/mL (≈ 229 µM)	240 µg/mL (≈ 1150 µM)	–	400 µg/mL (≈ 1910 µM)	> 100 µg/mL	–	–	–	–	–	–	–	EC50 [19]: > 100 µg/mL; EC50 [20]: > 100 µg/mL; EC50 [21]: > 100 µg/mL
Nc1ccn(C[C@@H](CO)OCP(=O)(O)O)c(=O)n1.O.O [CIDOFOVIR]	–	–	–	–	–	–	–	–	–	–	–	–	–	0.09 µg/mL	0.35 µg/mL	0.077 µg/mL	0.3 µg/mL	> 100 µg/mL	60.9 µg/mL	0.38 µg/mL	EC50 (Human alphaherpesvirus 2 [23]): 0.43 µg/mL; EC50 (Human alphaherpesvirus 3 [15]): 0.073 µg/mL; EC50 (Human betaherpesvirus 5 [16]): 0.2 µg/mL; EC50 (Human adenovirus 2): 1.53 µg/mL; EC50 (Vaccinia virus): 2.6 µg/mL; MCC [24]: 37 µg/mL
Nc1ncn(C[C@H](CO)OCP(=O)(O)O)c(=O)n1	> 200 µg/mL	> 200 µg/mL	> 200 µg/mL	> 200 µg/mL	> 200 µg/mL	> 200 µg/mL	> 200 µg/mL	> 200 µg/mL	> 200 µg/mL	> 200 µg/mL	> 200 µg/mL	> 200 µg/mL	> 100 µg/mL	11.8 µg/mL (≈ 42.1 µM)	12.6 µg/mL (≈ 45 µM)	13.8 µg/mL (≈ 49.3 µM)	8.9 µg/mL (≈ 31.8 µM)	> 100 µg/mL	> 100 µg/mL	17.8 µg/mL (≈ 63.5 µM)	CC50 [11]: > 100 µg/mL; CC50 [25]: > 50 µg/mL; EC50 (Human alphaherpesvirus 2 [23]): 14.8 µg/mL (≈ 52.8 µM); EC50 (Human betaherpesvirus 5 [16]): 7.3 µg/mL (≈ 26.1 µM); EC50 (Vaccinia virus): ≥ 81.6 µg/mL; EC50 [19]: > 100 µg/mL; EC50 [20]: > 100 µg/mL; EC50 [21]: > 100 µg/mL
Nc1ncn(C[C@H](O)CO)c(=O)n1	> 100 µg/mL	> 100 µg/mL	> 100 µg/mL	> 100 µg/mL	> 100 µg/mL	> 100 µg/mL	> 100 µg/mL	> 100 µg/mL	> 100 µg/mL	> 100 µg/mL	> 100 µg/mL	> 100 µg/mL	> 100 µg/mL	> 100 µg/mL	> 100 µg/mL	> 100 µg/mL	> 100 µg/mL	> 100 µg/mL	> 100 µg/mL	> 100 µg/mL	CC50 [11]: > 100 µg/mL; EC50 (Human alphaherpesvirus 2 [23]): > 100 µg/mL; EC50 (Human alphaherpesvirus 3 [15]): > 100 µg/mL; EC50 (Human betaherpesvirus 5 [16]): > 100 µg/mL; EC50 (Vaccinia virus): > 100 µg/mL; EC50 [19]: > 100 µg/mL; EC50 [20]: > 100 µg/mL; EC50 [21]: > 100 µg/mL
